Results published in patent US4026888A, “Certain derivatives of particular 3-thiolated cephalosporins” (priority 1976, dated 1977).
≈ marks a conversion by molar mass, not a printed value. Where two headings read alike, the source gives them in different places.

Key:
[1] = tested on: Str. pneumoniae A9585; assay: Antibiotic activity in nutrient broth (MIC); format: cell-based; details: Streptococcus pneumoniae, A9585, inoculum 10^-3 dilution of overnight broth culture; 45% AAB + 5% serum + 50% broth; derivatives adjusted for BL-S640 content
Text: (§1) Antibiotic Activity In Nutrient Broth
(§2) * 45% AAB+ 5% serum+ 50% broth listed above.
(§3) ** Dilution of overnight broth culture.
(§4) Antibiotic Spectrum Nutrient Broth
(§5) * 45% AAB + 5% serum + 50% broth
(§6) Antibiotic Spectrum in Nutrient Broth
(§7) *45% AAB + 5% serum + 50% broth listed above.

[2] = tested on: Str. pyogenes A9604; assay: Antibiotic activity in nutrient broth (MIC); format: cell-based; details: Streptococcus pyogenes, A9604, inoculum 10^-3; 45% AAB + 5% serum + 50% broth; derivatives adjusted for BL-S640 content; read-out: MIC
Text: as §1, §2, §3, §4, §5, §6, §7

[3] = tested on: Ent. cloacae A9656; assay: Antibiotic activity in nutrient broth (MIC); format: cell-based; details: Enterobacter cloacae, A9656, inoculum 10^-4; derivatives adjusted for BL-S640 content
Text: as §1, §3, §4, §6

[4] = tested on: Ent. cloacae A9657; assay: Antibiotic activity in nutrient broth (MIC); format: cell-based; details: Enterobacter cloacae, A9657, inoculum 10^-4; derivatives adjusted for BL-S640 content; read-out: MIC
Text: as §1, §3, §4, §6

[5] = tested on: K. pneumoniae A15130; assay: Antibiotic activity in nutrient broth (MIC); format: cell-based; details: Klebsiella pneumoniae, A15130, inoculum 10^-4; derivatives adjusted for BL-S640 content; read-out: MIC
Text: as §1, §3, §4, §6

[6] = tested on: K. pneumoniae A9977; assay: Antibiotic activity in nutrient broth (MIC); format: cell-based; details: Klebsiella pneumoniae, inoculum 10^-4, derivatives adjusted for BL-S640 content, read-out: MIC
Text: as §1, §3, §4, §6

[7] = tested on: Pr. mirabilis A9900; assay: Antibiotic activity in nutrient broth (MIC); format: cell-based; details: Proteus mirabilis, inoculum 10^-4, derivatives adjusted for BL-S640 content
Text: as §1, §3, §4, §6

[8] = tested on: Pr. morganii A15153; assay: Antibiotic activity in nutrient broth (MIC); format: cell-based; details: Morganella morganii, A15153, inoculum 10^-4; derivatives adjusted for BL-S640 content; read-out: MIC
Text: as §1, §3, §4, §6

[9] = tested on: S. aureus Smith A9537; assay: Antibiotic activity in nutrient broth (MIC); format: cell-based; details: Staphylococcus aureus, SMITHA9537, inoculum 10^-4, derivatives adjusted for BL-S640 content, read-out: MIC
Text: as §1, §3, §4, §6

[10] = tested on: Sal. enteritidis A9531; assay: Antibiotic activity in nutrient broth (MIC); format: cell-based; details: Salmonella enterica, ENTERITIDIS, inoculum 10^-4; derivatives adjusted for BL-S640 content; read-out: MIC
Text: as §1, §3, §4, §6

[11] = tested on: Ser. marcescens A20019; assay: Antibiotic activity in nutrient broth (MIC); format: cell-based; details: Serratia marcescens, A20019, inoculum 10^-4; derivatives adjusted for BL-S640 content
Text: as §1, §3, §4, §6

[12] = Mouse blood levels after oral administration; format: in vivo; details: mouse, blood, po, 100 mg/kg, Example 2, PO 100 mg./kg., Tween-CMC, 16 or 32 mice, read-out: Blood Levels
Protocol: Mouse Blood Levels After Oral
Administration Of 100 mg./kg. Body Weight
The compounds were prepared in
Tween - carboxymethylcellulose
and 8 mice were used for each
Mouse Blood Levels After PO
Administration of 100 mg./kg. Body Weight
The compounds were prepared in Tween-CMC. BL-S640
The compounds were prepared in Tween-CMC. Values are the average of two

[13] = Mouse blood levels after intramuscular administration; format: in vivo; details: mouse, blood, im, 10 mg/kg, Example 2, IM 10 mg./kg., 0.01% phosphate buffer, 16 or 32 mice, read-out: Blood Levels
Protocol: Mouse Blood Levels After Intramuscular Administration
of 10 mg./kg. Body Weight
The compounds were dissolved in 0.01% phosphate buffer.
Mouse Blood Levels After IM
Administration of 10 mg./kg. Body Weight
The compounds were prepared in 0.01% phosphate
(§8) The compounds were prepared in 0.01% phosphate buffer.

[14] = Urinary recovery after IM administration to rats; format: in vivo; details: rat, urine, read-out: Urinary Recovery, Percentage of Administered Dose Recovered; for dose excreted at 6 h: 0-6 hr
Protocol: Urinary Recovery After IM
Administration of 50 and 10 mg./kg. to Rats
The compounds were prepared in 0.01% phosphate buffer. BL-S640 was used as
Urinary Recovery after IM
Administration of 50 mg./kg. to Rats
as §8

[15] = Paper chromatography of rat urine for antibiotically active metabolites; format: in vivo; details: IM; rat urine 0-2 and 2-4 hours
Protocol: Paper chromatograms were run on rat urine collected between 0 and 2 and between 2 and 4 hours following IM administration of BL-S1055 and 640, for the detection of antibiotically active metabolites using descending chromatography with system No. 9 (butyl acetate:n-butanol:glacial acetic acid:H2 O= 80:15:40:24).

[16] = tested on: E. coli A15119; assay: Oral PD50 in mice; format: in vivo; details: Escherichia coli, A15119, po, 3.5 h, read-out: PD50
Protocol: (§9) Comparative Oral PD50 Values of
(§10) BL-S640 Derivatives in Mice
(§11) *Mice were treated at 1 and 3.5 hours post-challenge.

[17] = tested on: K. pneumoniae A9977; assay: Oral PD50 in mice; format: in vivo; details: Klebsiella pneumoniae, A9977, po, 3.5 h, read-out: PD50
Protocol: as §9, §10, §11

[18] = tested on: P. mirabilis A9707; assay: Oral PD50 in mice; format: in vivo; details: Proteus mirabilis, mice treated at 1 and 3.5 hours post-challenge
Protocol: as §9, §10, §11

[19] = tested on: S. pyogenes A9604; assay: Oral PD50 in mice; format: in vivo; details: Streptococcus pyogenes, mice treated at 1 and 3.5 hours post-challenge
Protocol: as §9, §10, §11

[20] = tested on: P. mirabilis A9900; assay: Oral PD50 in mice; format: in vivo; details: mice treated at 1 and 3.5 hours post-challenge
[21] = tested on: P. mirabilis A9900; assay: IM PD50 in mice; format: in vivo; details: Proteus mirabilis
Text: Comparative IM PD50 Values of
as §10

[22] = 0.2 and 1.0 mg./ml. in water
Protocol: Paper strip bioautographs were run in the following manner. Samples were dissolved at a concentration of 500 γ/ml. in 0.1M pH 7 phosphate buffer and pH 7 pooled human serum at 500 γ/ml. A 10 μl sample of BL-S640 and the above product were spotted on a 1/2 inch strip of What. No. 1 paper and developed at 27° for 16 hours in a butyl acetate 80, n-butanol 15, acetic acid 40, and water 24 system. The strips were air-dried, and placed on an agar plate seeded with B. subtilis A.T.C.C.
Samples were chromatographed on a μ Bondapak C18 (Waters Associates) column using a 0.01M sodium acetate pH 4/-methanol 8/2 mobile phase at a flow rate of 0.52 ml./min. Detection was by UV at 354 μm. Samples were dissolved at a concentration of 1 mg./ml. in the mobile phase, 2 μ were injected and BL-S640 was eluted at 18 min. and the aldehyde at 6 min. The quantitation of BL-S640 and 5-formylfuransulfonic acid were made using p-toluene-sulfonic acid as an internal standard.

In the case of `O=C(O)COc1ccccc1C1N[C@H](c2ccc(O)cc2)C(=O)N1[C@@H]1C(=O)N2C(C(=O)O)=C(CSc3cnn[nH]3)CS[C@H]12` (stereo partly drawn) [BL-S1048], the MIC [1] is reported as 0.06 mg/L, the MIC [2] is reported as 0.03 mg/L and the MIC [3] is reported as greater than 125 mg/L. The MIC [4] was 0.5 mg/L (≈ 0.8 µM), the MIC [5] was 1 mg/L (≈ 1.6 µM) and the MIC [6] was 0.5 mg/L (≈ 0.8 µM). The MIC [7] was 0.5 mg/L (≈ 0.8 µM), the MIC [8] was 32 mg/L (≈ 51.2 µM) and the MIC ([9]; + 50% serum) was 2 mg/L. It also gave an MIC ([9]; nutrient broth) of 0.13 mg/L (≈ 0.208 µM), an MIC [10] of 0.13 mg/L (≈ 0.208 µM) and an MIC [11] greater than 125 mg/L. For the same molecule, the concentration at 0.5 h ([12]; 0.5 hr) was 46.5 µg/mL, the concentration at 1 h ([12]; 1 hr) was 44.6 µg/mL and the concentration at 2 h ([12]; 2 hr) was 28.1 µg/mL. The concentration at 3.5 h ([12]; 3.5 hr) was 12.8 µg/mL, the concentration at 0.25 h ([13]; 0.25 hr) was 14.8 µg/mL and the concentration at 0.5 h ([13]; 0.5 hr) was 14.1 µg/mL. For the same molecule, the concentration at 1 h ([13]; 1 hr) was 10.3 µg/mL, the concentration at 1.5 h ([13]; 1.5 hr) was 7 µg/mL and the dose excreted at 6 h ([14]; 10 mg/kg, IM 10 mg./kg.) was 21.7%. The dose excreted at 24 h ([14]; 10 mg/kg, IM 10 mg./kg., 0-24 hr) was 23.7%, the dose excreted at 24 h ([14]; 10 mg/kg, IM 10 mg./kg., 6-24 hr) was 2% and the dose excreted at 6 h ([14]; 50 mg/kg, IM 50 mg./kg.) was 32.3%. For the same molecule, the dose excreted at 24 h ([14]; 50 mg/kg, IM 50 mg./kg., 0-24 hr) was 34.7%, the dose excreted at 24 h ([14]; 50 mg/kg, IM 50 mg./kg., 6-24 hr) was 2.4% and the “Hydrolysis to the parent compound (BL-S640)” value [15] was “complete hydrolysis”. It also gave an ED50 ([16]; oral, mice treated at 1 and 3.5 hours post-challenge) of 3.1 mg/kg, an ED50 [16] of 1.6 mg/kg and an ED50 [17] of 0.7 mg/kg. For the same molecule, the ED50 [18] was 2.4 mg/kg, the ED50 [19] was 0.2 mg/kg and the ED50 ([20]; Proteus mirabilis, A9900, po, 3.5 h, read-out: PD50, oral) was 4.7 mg/kg. The PD50 ([20]; oral) was 3.6 mg./kg./treatment, the ED50 [21] was 1.6 mg/kg and the “Form in solution by paper strip and liquid chromatography” value [22] was “BL-S640 completely free of the aldehyde”.
